Laboratory results as given in the supplement of paper PMC10307832.

Tests used:
Assay in all cases: relative viability (nuclei count vs DMSO), 5 days (fraction); higher = more cells survive
IU1-47 + Foretinib = compound: CC1=CC(=C(N1C2=CC=C(C=C2)Cl)C)C(=O)CN3CCCCC3 [IU1-47] + COc1cc2c(Oc3ccc(NC(=O)C4(C(=O)Nc5ccc(F)cc5)CC4)cc3F)ccnc2cc1OCCCN1CCOCC1 [Foretinib] (partner 0.25 µM)
Method in brief: (§1)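 After 5 days of treatment, lung cancer cells in 1536-well plates were fixed and stained in a single step (final 0.05% Triton X-100, 1% formaldehyde, 1 ug/ml Hoechst) and their nuclei counted on 4× images. Treatment had been applied by pin tool the day after seeding as one drug alone or as a fixed anchor-drug dose with five library-drug doses (not always all listed) in √10 steps. Relative viability is the nuclei count of treated wells divided by that of vehicle wells, and values are medians of duplicate plates.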

FG-4592 + Decitabine = compound: Cc1nc(C(=O)NCC(=O)O)c(O)c2ccc(Oc3ccccc3)cc12 [FG-4592] + Nc1ncn([C@H]2C[C@H](O)[C@@H](CO)O2)c(=O)n1 [Decitabine] (partner 2 µM)
Method in brief: as §1

FG-4592 + Navitoclax = compound: Cc1nc(C(=O)NCC(=O)O)c(O)c2ccc(Oc3ccccc3)cc12 [FG-4592] + CC1(C)CCC(c2ccc(Cl)cc2)=C(CN2CCN(c3ccc(C(=O)NS(=O)(=O)c4ccc(N[C@H](CCN5CCOCC5)CSc5ccccc5)c(S(=O)(=O)C(F)(F)F)c4)cc3)CC2)C1 [Navitoclax] (partner 0.5 µM)
Method in brief: as §1

IU1-47 + Decitabine = compound: CC1=CC(=C(N1C2=CC=C(C=C2)Cl)C)C(=O)CN3CCCCC3 [IU1-47] + Nc1ncn([C@H]2C[C@H](O)[C@@H](CO)O2)c(=O)n1 [Decitabine] (partner 2 µM)
Method in brief: as §1

| Cell Line | relative viability (IU1-47 + Foretinib; first compound 0.08 µM) | relative viability (IU1-47 + Foretinib; first compound 0.253 µM) | relative viability (IU1-47 + Foretinib; first compound 0.8 µM) | relative viability (IU1-47 + Foretinib; first compound 2.53 µM) | relative viability (IU1-47 + Foretinib; first compound 8 µM) | relative viability (FG-4592 + Decitabine; first compound 0.08 µM) | relative viability (FG-4592 + Decitabine; first compound 0.253 µM) | relative viability (FG-4592 + Decitabine; first compound 0.8 µM) | relative viability (FG-4592 + Decitabine; first compound 2.53 µM) | relative viability (FG-4592 + Decitabine; first compound 8 µM) | relative viability (FG-4592 + Navitoclax; first compound 0.08 µM) | relative viability (FG-4592 + Navitoclax; first compound 0.253 µM) | relative viability (FG-4592 + Navitoclax; first compound 0.8 µM) | relative viability (FG-4592 + Navitoclax; first compound 2.53 µM) | relative viability (FG-4592 + Navitoclax; first compound 8 µM) | relative viability (IU1-47 + Decitabine; first compound 0.08 µM) | relative viability (IU1-47 + Decitabine; first compound 0.253 µM) | relative viability (IU1-47 + Decitabine; first compound 0.8 µM) | relative viability (IU1-47 + Decitabine; first compound 2.53 µM) | relative viability (IU1-47 + Decitabine; first compound 8 µM) |
| --- | --- | --- | --- | --- | --- | --- | --- | --- | --- | --- | --- | --- | --- | --- | --- | --- | --- | --- | --- | --- |
| HCC-366 | 0.872 | 0.92 | 1 | 0.966 | 1.01 | 0.359 | 0.347 | 0.324 | 0.383 | 0.308 | 1.07 | 0.903 | 1.12 | 1.1 | 1.04 | 0.375 | 0.382 | 0.349 | 0.389 | 0.272 |
| HCC-827 | 1.15 | 1.12 | 0.998 | 1.02 | 1.01 | 0.376 | 0.28 | 0.319 | 0.334 | 0.328 | 1.03 | 1.01 | 0.992 | 1.02 | 1.09 | 0.336 | 0.323 | 0.351 | 0.31 | 0.31 |
| HOP-62 | 1.17 | 1.12 | 1.04 | 1.11 | 1.13 | 0.216 | 0.219 | 0.223 | 0.199 | 0.185 | 1.04 | 1.01 | 1.2 | 0.983 | 1.03 | 0.233 | 0.218 | 0.224 | 0.247 | 0.208 |
| IA-LM | 1.02 | 1.12 | 0.936 | 1.17 | 1 |  |  |  |  |  | 0.785 | 0.707 | 0.899 | 0.481 | 0.397 |  |  |  |  |  |
| LC-2-ad | 1 | 1.07 | 0.908 | 0.794 | 0.878 | 0.804 | 0.66 | 0.755 | 0.853 | 0.837 | 0.489 | 0.465 | 0.329 | 0.458 | 0.503 | 0.996 | 0.788 | 0.792 |  | 0.78 |
| LCLC-97TM1 | 0.957 | 1.02 | 0.892 | 0.725 | 0.856 | 0.218 | 0.209 |  | 0.217 | 0.173 | 0.396 | 0.489 | 0.306 |  | 0.496 | 0.287 | 0.252 | 0.244 |  | 0.234 |
| LCLC-103H | 0.786 | 0.864 | 0.846 | 0.73 | 0.865 | 0.773 | 0.747 | 0.664 | 0.741 | 0.66 |  |  |  |  |  | 0.793 | 0.731 | 0.724 | 0.725 | 0.751 |
| LK-2 | 1.8 | 1.82 | 1.78 | 0.89 | 0.943 | 0.273 | 0.272 | 0.274 | 0.371 | 0.295 | 0.87 | 0.771 | 0.734 | 0.836 | 0.674 | 0.354 | 0.35 | 0.34 | 0.372 | 0.179 |
| LOU-NH91 | 0.988 | 1 | 0.903 | 0.891 | 0.966 | 0.861 | 0.802 | 0.814 | 0.802 | 0.812 | 0.709 | 0.624 | 0.635 | 0.711 | 0.617 | 0.909 | 0.854 | 0.797 | 0.816 | 0.797 |
| LU99A | 0.768 | 0.759 | 0.859 | 0.932 | 0.702 | 0.842 | 0.796 |  | 0.906 | 0.795 | 0.869 | 0.709 | 0.75 | 0.832 | 0.718 | 0.968 | 0.824 | 0.852 | 0.883 | 0.768 |
| NCI-H358 | 0.828 | 0.628 | 0.863 | 0.652 | 0.658 | 0.213 | 0.194 | 0.288 | 0.192 | 0.202 |  |  |  |  |  | 0.242 | 0.204 | 0.2 | 0.201 | 0.21 |
| NCI-H522 |  |  |  |  |  | 0.706 | 0.514 |  | 0.65 | 0.74 |  |  |  |  |  | 0.67 | 0.64 | 0.739 | 0.763 | 0.634 |
| NCI-H650 | 1.06 | 1.01 | 1.02 | 0.881 | 1.07 | 0.314 | 0.275 | 0.301 | 0.296 | 0.306 |  |  |  |  |  | 0.369 | 0.333 | 0.27 | 0.334 | 0.291 |
| NCI-H661 | 1.14 | 1.16 | 1.07 | 0.93 | 1.2 | 0.526 | 0.469 | 0.563 | 0.535 | 0.484 |  |  |  |  |  | 0.531 | 0.575 | 0.596 | 0.556 | 0.503 |
| NCI-H1299 | 1.1 | 1.11 | 1.09 | 1.18 | 1.01 |  |  |  |  |  | 1.07 | 1.03 | 1.02 | 1.02 | 1.1 |  |  |  |  |  |
| NCI-H1563 | 0.855 | 0.988 | 0.967 | 0.886 | 0.864 |  |  |  |  |  |  |  |  |  |  |  |  |  |  |  |
| NCI-H1648 |  |  |  |  |  | 0.549 | 0.484 |  | 0.416 | 0.635 |  |  |  |  |  | 0.546 | 0.496 | 0.664 | 0.387 | 0.444 |
| NCI-H1703 | 0.342 | 0.315 | 0.278 | 0.377 | 0.361 |  |  |  |  |  | 1.01 | 0.862 | 1.16 | 1.13 | 1.02 |  |  |  |  |  |
| NCI-H1792 |  |  |  |  |  | 0.508 | 0.485 |  | 0.525 | 0.484 | 0.619 | 0.554 | 0.575 | 0.611 | 0.644 | 0.625 | 0.639 | 0.611 | 0.497 | 0.371 |
| NCI-H2228 | 1.14 | 1.05 | 0.975 | 0.827 | 0.75 |  |  |  |  |  | 0.949 | 0.663 | 0.896 | 0.832 | 0.819 |  |  |  |  |  |
| NCI-H2342 | 1.24 | 1.06 | 0.935 | 1.07 | 1.03 | 0.841 | 0.793 | 0.662 | 0.772 | 0.608 |  |  |  |  |  | 0.81 | 0.766 | 0.755 | 0.688 | 0.747 |
| SW 900 | 1.24 | 0.849 | 0.852 | 1.18 | 0.734 |  | 0.47 |  | 0.465 | 0.349 |  |  |  |  |  | 0.414 |  | 0.447 | 0.452 | 0.353 |
